Data taken from patent publication US20050014699A1, “Combinations of enzyme inhibitor-containing preparations and the use thereof” (priority 2000, published 2005).

Assays:
Assay type in all cases: cell-based
[1] = test system: human peripheric mononuclear cells (MNZ); test: DNA synthesis of human peripheric mononuclear cells (MNZ), 3[H]-thymidine incorporation; conditions: 72 h incubation
Description: The MNZ were incubated for 72 h in the presence of said inhibitors, and the DNA synthesis rate was determined subsequently by the measurement of the ^3[H]-thymidine incorporation, as was described by Reinhold et al. [D. Reinhold et al.: “Inhibitors of dipeptidyl peptidase IV induce secretion of transforming growth factor β1 in PWM-stimulated PBMNC and T cells”, Immunology 1997, 91, 354-360].
(§1) Human MNZ were incubated for three days with the concentrations of inhibitors mentioned above. Subsequently, ^3[H]-methyl thymidine was added to the culture medium, and the amount of ^3[H]-thymidine incorporated into the DNA was measured after further 6 hours.
The MNZ were incubated for 72 h in the presence of said inhibitors, and the DNA synthesis rate was determined subsequently by the measurement of the ^3[H]-thymidine incorporation, as was described by Reinhold et al. [D. Reinhold et al.; “Inhibitors of dipeptidyl peptidase IV induce secretion of transforming growth factor β1 in PWM-stimulated PBMNC and T cells”, Immunology 1997, 91, 354-360].

[2] = test system: human peripheric T lymphocytes; test: DNA synthesis of human peripheric T lymphocytes, 3[H]-thymidine incorporation; conditions: 72 h incubation
Description: The T cells were incubated for 72 h in the presence of said inhibitors and subsequently, the DNA synthesis rate was determined via a measurement of the ^3[H]-thymidin incorporation, as was described by Reinhold et al. [D. Reinhold et al,: “Inhibitors of dipeptidyl peptidase IV induce secretion of transforming growth factor β1 in PWM-stimulated PBMNC and T cells”, Immunology 1997, 91, 354-360].
Human peripheric T cells were incubated over 3 days with the concentrations of the inhibitors shown. Subsequently, ^3[H]-methyl thymidine was added to the culture medium, and the amount of ^3[H]-thymidine inserted into the DNA was measured after further 6 hours.
The T cells were incubated for 72 h in the presence of said inhibitors, and the DNA synthesis rate was determined subsequently by the measurement of the ^3[H]-thymidine incorporation, as was described by Reinhold et al. [D. Reinhold et al.: “Inhibitors of dipeptidyl peptidase IV induce secretion of transforming growth factor β1 in PWM-stimulated PBMNC and T cells”, Immunology 1997, 91, 354-360].
as §1, with “FIG. 3 show a the synergistic and dose-dependent effect of inhibitors of DP IV (I49) and of prolyl oligopeptidase (Boc-Ala-Thia) on the DNA synthesis of human peripheric T lymphocytes. Human” for “Human”, “T cells” for “MNZ”
Human T cells were incubated for three days with the concentrations of inhibitors mentioned above. Subsequently, ^3[H]-methyl thymidine was added to the culture medium, and the amount of ^3[H]-thymidine incorporated into the DNA was measured after further 6 hours.

[3] = test system: human T cell line KARPAS-299; test: WST-1 cell proliferation assay, KARPAS-299 cells; conditions: single and simultaneous administration of I49 and APN inhibitors Actinonin and Probestin (FIG. 8)
Description: FIG. 8: The KARPAS-299 cells were incubated without addition (control) and in the presence of single inhibitors mentioned above as well as in the presence of combinations thereof, respectively. Subsequently, the number of metabolically active cells was determined by using the commercially available WST-1 cell proliferation assay (Takara Inc.) in accordance with the provisions of the manufacturer.

[4] = test system: activated human peripheric T cells; test: WST-1 cell proliferation assay, activated human peripheric T cells; conditions: single or simultaneous administration of I49 and APN inhibitors Actinonin and Probestin; activation by phytohemagglutinine and phorbol-12-myristate-13-acetate; 72 h (FIG. 9)
Description: FIG. 9: The T cells, with the exception of the untreated control, were activated by an addition of phytohemagglutinine and phorbol-12-myristate-13-acetate to the culture medium and were incubated for a time period of 72 h in the presence of the above-mentioned inhibitors single and in combination. Subsequently, the number of metabolically active cells was determined by using the commercially available WST-1 cell proliferation assay (Takara Inc.) in accordance with the provisions of the manufacturer.

[5] = test system: PHA-activated human mononuclear cells (MNZ); test: WST-1 cell proliferation assay, PHA-activated human mononuclear cells (MNZ)
Description: FIG. 7: The MNZ were incubated for a time period of 72 h without addition (control), with an addition of the mitogenic lectin phytohemagglutinin (PHA), and with the addition of PHA and the inhibitors mentioned above, respectively. Subsequently, the number amount of metabolically active cells was determined by using the commercially available WST-1 cell proliferation assay (Takara Inc.) in accordance with the provisions of the manufacturer.
FIG. 10: The mononuclear cells (MNZ) were incubated for a time period of 72 h in the presence of the inhibitors mentioned above single and in combination. Subsequently, the number of metabolically active cells was determined by using the commercially available WST-1 cell proliferation assay (Takara Inc.) in accordance with the provisions of the manufacturer.

[6] = simultaneous administration of DP IV inhibitor I49 and prolyl oligopeptidase inhibitor Boc-Ala-Thiazolidid, dose-dependent (FIG. 4)
[7] = simultaneous administration of DP IV inhibitor I49 and prolyl oligopeptidase inhibitor Boc-Ala-thiazolidid, dose-dependent (FIG. 3)
[8] = single or simultaneous administration of I49 and APP inhibitor Apstatin, PHA-activated, 72 h (FIG. 10)
[9] = simultaneous administration of DP IV inhibitor I49 and ACE inhibitor Captopril, dose-dependent (FIG. 6)
[10] = simultaneous administration of DP IV inhibitor I49 and ACE inhibitor Captopril, dose-dependent (FIG. 5)
[11] = simultaneous administration of DP IV inhibitor I49 and APN inhibitor actinonine, dose-dependent (FIG. 2)
[12] = single and simultaneous administration of I49 and Actinonin, PHA, 72 h (FIG. 7)
[13] = simultaneous administration of DP IV inhibitor I49 and APN inhibitor Actinonin, dose-dependent (FIG. 1)

Row | SMILES | inhibition of DNA synthesis [1, 6] | inhibition of DNA synthesis [2, 7] | inhibition of proliferation (number of metabolically active cells) [3] | inhibition of proliferation (number of metabolically active cells) [4] | inhibition of proliferation (number of metabolically active cells) [5, 8] | inhibition of DNA synthesis [1, 9] | inhibition of DNA synthesis [2, 10] | inhibition of DNA synthesis [1, 11] | inhibition of proliferation (number of metabolically active cells) [5, 12] | inhibition of DNA synthesis [2, 13]
1 | CC(NC(=O)OC(C)(C)C)C(=O)N1CCSC1 (stereo not drawn) [Boc-Ala-thiazolidid] | inhibited in a superadditive manner | inhibited in a superadditive manner |  |  |  |  |  |  |  | 
2 | CC(C)C[C@H](NC(=O)[C@@H](O)[C@H](N)Cc1ccccc1)C(=O)N1CCC[C@H]1C(=O)N1CCC[C@H]1C(=O)O [Probestin] |  |  | Inhibition of the Proliferation | Inhibition of the Proliferation |  |  |  |  |  | 
3 | C[C@H](NC(=O)[C@@H]1CCCN1C(=O)[C@@H]1CCCN1C(=O)[C@@H](O)[C@H](N)Cc1ccccc1)C(N)=O [Apstatin] |  |  |  |  | Inhibition of the Proliferation |  |  |  |  | 
4 | C[C@H](CS)C(=O)N1CCC[C@H]1C(=O)O [Captopril] |  |  |  |  |  | inhibited in a superadditive manner | inhibited in a superadditive manner |  |  | 
5 | NC(CCCCNC(=O)OCc1ccc([N+](=O)[O-])cc1)C(=O)N1CCSC1 (stereo not shown) [I49, Lys[Z(NO2)]-thiazolidid] | inhibited in a superadditive manner | inhibited in a superadditive manner | Inhibition of the Proliferation | Inhibition of the Proliferation | Inhibition of the Proliferation | inhibited in a superadditive manner | inhibited in a superadditive manner | inhibited in a superadditive manner | Inhibition of the Proliferation | inhibited in a superadditive manner
6 | CCCCC[C@H](CC(=O)NO)C(=O)N[C@H](C(=O)N1CCC[C@H]1CO)C(C)C [Actinonin] |  |  | Inhibition of the Proliferation | Inhibition of the Proliferation |  |  |  | inhibited in a superadditive manner | Inhibition of the Proliferation | inhibited in a superadditive manner
